In US11331299B2, “Medicinal use of serrulatane diterpenes” (The University of Sydney, priority 2016, dated 2022):
Like-named read-outs stand apart in the source and are kept apart here.

Assays:
TAF1(2)(h) bromodomain = target: T1, TAF1(2)(h) bromodomain (Homo sapiens, UniProt P21675); experiment: Epigenetic binding assay, Bromodomain; conditions: 10 μM; for inhibition at 10 µM: read-out: % Inhibition of Control Specific Binding
T1 construct: Bromodomain
T1 sequence (P21675 1519-1628 limits assumed): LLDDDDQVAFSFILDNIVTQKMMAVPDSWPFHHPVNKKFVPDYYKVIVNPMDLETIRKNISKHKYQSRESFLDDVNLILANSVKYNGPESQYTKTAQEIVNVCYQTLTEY

[1] = target: T2, Glycine N-methyltransferase (h) (Homo sapiens, UniProt Q14749); experiment: Epigenetic enzyme assay, Small molecule methyltransferases; assay type: biochemical; conditions: read-out: % Inhibition of Control Values
T2 sequence (Q14749 1-295): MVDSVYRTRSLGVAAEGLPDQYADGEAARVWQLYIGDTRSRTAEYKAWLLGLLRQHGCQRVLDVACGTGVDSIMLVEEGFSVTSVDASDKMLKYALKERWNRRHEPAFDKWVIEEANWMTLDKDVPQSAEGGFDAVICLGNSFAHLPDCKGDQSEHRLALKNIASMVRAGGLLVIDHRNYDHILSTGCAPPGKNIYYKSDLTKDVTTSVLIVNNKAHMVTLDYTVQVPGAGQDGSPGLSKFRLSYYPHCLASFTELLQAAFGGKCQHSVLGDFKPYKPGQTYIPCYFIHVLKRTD

[2] = target: T3, sirtuin 1 (h) (inhibitor effect) (Homo sapiens, UniProt Q96EB6); experiment: Epigenetic enzyme assay, Sirtuins; assay type: biochemical; conditions: read-out: % Inhibition of Control Values
T3 sequence (Q96EB6 1-747): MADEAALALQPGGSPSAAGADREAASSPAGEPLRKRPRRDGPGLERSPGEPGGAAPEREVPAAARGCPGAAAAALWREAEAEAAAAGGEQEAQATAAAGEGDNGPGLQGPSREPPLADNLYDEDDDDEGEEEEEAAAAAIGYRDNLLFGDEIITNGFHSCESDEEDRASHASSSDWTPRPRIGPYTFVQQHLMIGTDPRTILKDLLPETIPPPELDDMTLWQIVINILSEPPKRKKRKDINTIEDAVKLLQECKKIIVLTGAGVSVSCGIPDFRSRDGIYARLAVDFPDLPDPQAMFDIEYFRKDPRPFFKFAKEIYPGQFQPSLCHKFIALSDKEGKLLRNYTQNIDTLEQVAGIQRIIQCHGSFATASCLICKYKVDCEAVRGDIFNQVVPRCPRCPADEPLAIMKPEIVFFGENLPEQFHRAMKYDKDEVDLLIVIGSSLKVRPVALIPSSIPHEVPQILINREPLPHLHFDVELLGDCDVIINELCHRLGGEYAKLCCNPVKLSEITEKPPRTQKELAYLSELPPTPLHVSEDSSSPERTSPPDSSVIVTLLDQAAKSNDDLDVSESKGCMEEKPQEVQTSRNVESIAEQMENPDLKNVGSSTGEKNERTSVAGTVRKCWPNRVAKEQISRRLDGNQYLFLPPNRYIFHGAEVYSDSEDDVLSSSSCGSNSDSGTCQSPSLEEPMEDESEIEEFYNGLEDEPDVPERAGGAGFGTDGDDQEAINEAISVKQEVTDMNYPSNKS

Deacetylase, Histone 2 = target: T4, Deacetylase, Histone 2 (Homo sapiens, UniProt Q92769); experiment: Deacetylase, Histone 2 (PanLab); assay type: biochemical
T4 construct: host or cells: Insect Sf9 cells
Procedure: (§1) The in vitro pharmacological studies were conducted by Eurofins PanLab (Taiwan) using the parameters shown in Table 13 with respect to appropriate literature references.

HDAC6 (h) = target: T5, HDAC6 (h) (Homo sapiens, UniProt Q9UBN7); experiment: Epigenetic enzyme assay, Histone deacetylase (HDACs); assay type: biochemical; conditions: read-out: % Inhibition of Control Values
T5 sequence (Q9UBN7 1-1215): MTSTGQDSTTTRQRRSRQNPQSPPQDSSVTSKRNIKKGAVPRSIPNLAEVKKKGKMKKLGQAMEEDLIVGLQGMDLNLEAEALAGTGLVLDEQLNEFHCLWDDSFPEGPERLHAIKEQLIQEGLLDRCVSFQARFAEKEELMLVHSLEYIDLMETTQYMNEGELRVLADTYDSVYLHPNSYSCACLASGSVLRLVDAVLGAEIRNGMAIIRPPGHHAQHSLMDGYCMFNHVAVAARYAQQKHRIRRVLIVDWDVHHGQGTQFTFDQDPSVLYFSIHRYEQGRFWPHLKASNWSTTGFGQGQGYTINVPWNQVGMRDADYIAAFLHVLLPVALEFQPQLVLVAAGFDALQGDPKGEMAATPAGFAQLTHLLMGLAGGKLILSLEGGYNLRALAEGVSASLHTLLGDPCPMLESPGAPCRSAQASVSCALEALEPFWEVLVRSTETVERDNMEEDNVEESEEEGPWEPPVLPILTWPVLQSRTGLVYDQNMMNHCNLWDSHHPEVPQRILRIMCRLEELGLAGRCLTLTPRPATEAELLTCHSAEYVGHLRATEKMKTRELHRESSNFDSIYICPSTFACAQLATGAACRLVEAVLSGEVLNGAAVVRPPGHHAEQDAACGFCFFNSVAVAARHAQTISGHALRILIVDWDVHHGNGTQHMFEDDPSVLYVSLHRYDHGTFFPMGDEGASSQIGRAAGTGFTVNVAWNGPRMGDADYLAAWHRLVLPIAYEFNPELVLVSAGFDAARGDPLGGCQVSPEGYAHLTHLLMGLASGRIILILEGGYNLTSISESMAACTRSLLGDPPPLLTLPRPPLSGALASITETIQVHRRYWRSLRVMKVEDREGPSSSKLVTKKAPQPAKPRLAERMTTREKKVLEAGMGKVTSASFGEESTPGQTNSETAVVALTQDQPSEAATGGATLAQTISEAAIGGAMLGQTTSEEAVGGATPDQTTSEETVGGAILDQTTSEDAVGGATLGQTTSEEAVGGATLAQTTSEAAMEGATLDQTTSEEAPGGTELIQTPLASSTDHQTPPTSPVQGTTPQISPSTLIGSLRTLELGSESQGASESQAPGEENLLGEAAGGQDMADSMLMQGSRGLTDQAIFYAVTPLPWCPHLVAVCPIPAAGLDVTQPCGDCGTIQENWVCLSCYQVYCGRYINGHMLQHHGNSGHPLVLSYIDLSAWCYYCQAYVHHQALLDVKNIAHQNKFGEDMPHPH

L3MBTL1 MBT domain = experiment: Epigenetic binding assay, MBT domain; conditions: 10 μM
BRD4(2) (h) bromodomain = target: T6, BRD4(2) (h) bromodomain (Homo sapiens, UniProt O60885); experiment: Epigenetic binding assay, Bromodomain; conditions: for inhibition at 10 µM: read-out: % Inhibition of Control Specific Binding
T6 construct: Bromodomain

HDAC9 (h) = HDAC9 (h) (Homo sapiens, UniProt Q9UKV0); experiment: Epigenetic enzyme assay, Histone deacetylase (HDACs); assay type: biochemical; conditions: read-out: % Inhibition of Control Values
[3] = test system: Rat L6 skeletal muscle cells; experiment: [3H]-2-Deoxy-D-glucose uptake; assay type: cell-based; conditions: 10 μM; assay year 2016
Procedure: as §1

TIP60(h) = TIP60(h) (Homo sapiens, UniProt Q92993); experiment: Epigenetic enzyme assay, Histone acetyltransferases (HATs); assay type: biochemical; conditions: read-out: % Inhibition of Control Values
[4] = assay year 2014, read-out: % Control Response
[5] = assay year 2015, read-out: % Control Response

Sequence of TIP60(h) (Q92993 whole entry): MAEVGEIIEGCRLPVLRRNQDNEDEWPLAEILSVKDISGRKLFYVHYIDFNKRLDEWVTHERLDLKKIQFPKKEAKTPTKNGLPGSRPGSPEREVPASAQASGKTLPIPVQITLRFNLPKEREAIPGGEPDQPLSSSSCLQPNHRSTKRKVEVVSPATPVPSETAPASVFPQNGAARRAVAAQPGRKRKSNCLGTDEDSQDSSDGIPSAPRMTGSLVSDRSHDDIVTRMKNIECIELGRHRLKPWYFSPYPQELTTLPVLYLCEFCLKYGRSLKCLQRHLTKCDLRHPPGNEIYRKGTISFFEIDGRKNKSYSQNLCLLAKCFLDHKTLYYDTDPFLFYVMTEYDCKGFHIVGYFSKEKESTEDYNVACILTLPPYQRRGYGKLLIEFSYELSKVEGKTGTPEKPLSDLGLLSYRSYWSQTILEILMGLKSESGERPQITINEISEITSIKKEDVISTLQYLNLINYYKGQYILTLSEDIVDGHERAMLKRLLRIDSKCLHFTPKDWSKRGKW
Sequence of HDAC9 (h) (Q9UKV0 whole entry): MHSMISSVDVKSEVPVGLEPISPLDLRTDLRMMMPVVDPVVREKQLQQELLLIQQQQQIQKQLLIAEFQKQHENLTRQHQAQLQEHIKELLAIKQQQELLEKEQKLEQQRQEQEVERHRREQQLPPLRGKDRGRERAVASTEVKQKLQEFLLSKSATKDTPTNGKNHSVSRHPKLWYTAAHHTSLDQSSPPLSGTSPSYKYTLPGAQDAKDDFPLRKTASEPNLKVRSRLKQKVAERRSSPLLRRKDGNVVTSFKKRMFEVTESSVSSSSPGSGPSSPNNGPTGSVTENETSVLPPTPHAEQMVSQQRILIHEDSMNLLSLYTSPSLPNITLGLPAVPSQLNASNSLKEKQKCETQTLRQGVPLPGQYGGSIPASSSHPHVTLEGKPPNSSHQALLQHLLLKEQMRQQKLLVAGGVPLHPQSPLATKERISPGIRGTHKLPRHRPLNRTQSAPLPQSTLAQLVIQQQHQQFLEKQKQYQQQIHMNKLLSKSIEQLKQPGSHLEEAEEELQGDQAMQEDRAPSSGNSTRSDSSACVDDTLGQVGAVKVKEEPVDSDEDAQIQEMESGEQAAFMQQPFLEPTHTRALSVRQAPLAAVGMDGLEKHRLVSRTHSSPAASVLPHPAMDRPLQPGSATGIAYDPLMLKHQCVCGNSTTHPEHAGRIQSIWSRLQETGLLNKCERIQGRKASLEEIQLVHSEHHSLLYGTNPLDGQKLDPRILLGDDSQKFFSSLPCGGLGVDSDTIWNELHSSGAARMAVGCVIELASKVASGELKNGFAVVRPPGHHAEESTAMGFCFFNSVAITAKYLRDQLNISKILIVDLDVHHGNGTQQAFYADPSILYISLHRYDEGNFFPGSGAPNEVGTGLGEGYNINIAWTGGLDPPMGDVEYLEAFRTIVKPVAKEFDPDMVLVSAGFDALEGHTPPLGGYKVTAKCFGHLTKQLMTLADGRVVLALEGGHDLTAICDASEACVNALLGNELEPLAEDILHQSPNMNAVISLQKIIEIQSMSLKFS
T4 sequence (Q92769 whole entry): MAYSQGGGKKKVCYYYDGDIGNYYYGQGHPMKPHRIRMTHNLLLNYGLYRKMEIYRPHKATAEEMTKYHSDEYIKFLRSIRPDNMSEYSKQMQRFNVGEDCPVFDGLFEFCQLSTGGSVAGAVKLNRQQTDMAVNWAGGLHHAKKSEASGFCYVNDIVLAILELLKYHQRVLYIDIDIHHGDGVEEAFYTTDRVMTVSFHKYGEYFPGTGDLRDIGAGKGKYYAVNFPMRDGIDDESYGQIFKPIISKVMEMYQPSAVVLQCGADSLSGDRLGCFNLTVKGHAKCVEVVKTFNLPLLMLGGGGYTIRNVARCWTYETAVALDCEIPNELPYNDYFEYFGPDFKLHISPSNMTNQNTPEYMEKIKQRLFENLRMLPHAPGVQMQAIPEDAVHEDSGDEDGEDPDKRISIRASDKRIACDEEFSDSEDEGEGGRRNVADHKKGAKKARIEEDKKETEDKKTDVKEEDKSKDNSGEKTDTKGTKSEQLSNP

For `CC(C)=CCC[C@H](CO)[C@@H]1CC[C@@H](C)c2c1cc(C)c(O)c2O` [Compound 1, 7,8,18-trihydroxyserrulat-14-ene], the “% Inhibition of Control Specific Binding” value (TAF1(2)(h) bromodomain) was “significant inhibitory activity”, the inhibition at 10 µM (TAF1(2)(h) bromodomain) was 62% and the inhibition at 10 µM [1] was 55%. The inhibition at 10 µM [2] was 2%, the remaining activity at 10 µM (Deacetylase, Histone 2; [4]) was 56% and the remaining activity at 10 µM (Deacetylase, Histone 2; [5]) was 34%. The inhibition at 10 µM (HDAC6 (h)) was 12%, the “% Inhibition of Control Specific Binding” value (L3MBTL1 MBT domain) was 41% and the “% Inhibition of Control Specific Binding” value (BRD4(2) (h) bromodomain; 10 μM) was “significant inhibitory activity”. The inhibition at 10 µM (BRD4(2) (h) bromodomain; 10 μM) was 76%, the IC50 (BRD4(2) (h) bromodomain; Table 9, inhibition/concentration-response curve) was 5.6 µM and the inhibition at 10 µM (HDAC9 (h)) was -50%. For the same compound, the “% Control Response, agonist (increase in 2-DG uptake relative to insulin response)” value [3] was −61% and the inhibition at 10 µM (TIP60(h)) was 20%.
For `CC(C)=CCC[C@@H]1C(O)Oc2c(C)cc(O)c3c2[C@H]1CC[C@H]3C` (some centres unmarked) [Compound 2, 5,18-epoxyserrulat-14-en-8,18-diol], the inhibition at 10 µM (TAF1(2)(h) bromodomain) was 28%, the inhibition at 10 µM [1] was 5% and the inhibition at 10 µM [2] was -3%. It also gave a remaining activity at 10 µM (Deacetylase, Histone 2; [4]) of 44%, a remaining activity at 10 µM (Deacetylase, Histone 2; [5]) of 21% and an inhibition at 10 µM (HDAC6 (h)) of 2%. For the same compound, the “% Inhibition of Control Specific Binding” value (L3MBTL1 MBT domain) was 61%, the inhibition at 10 µM (BRD4(2) (h) bromodomain; 10 μM) was 16% and the inhibition at 10 µM (HDAC9 (h)) was -1%. The inhibition at 10 µM (TIP60(h)) was 10%.
In the case of `CC(C)=CCC[C@@H]1COc2c(C)cc(O)c3c2[C@H]1CC[C@H]3C` [Compound 3, 5,18-epoxy-8-hydroxyserrulat-14-ene], the inhibition at 10 µM (TAF1(2)(h) bromodomain) is reported as 22%, the inhibition at 10 µM [1] is reported as -11% and the inhibition at 10 µM [2] is reported as -5%. For the same compound, the remaining activity at 10 µM (Deacetylase, Histone 2; [5]) was 12%, the inhibition at 10 µM (HDAC6 (h)) was -18% and the “% Inhibition of Control Specific Binding” value (L3MBTL1 MBT domain) was 59%. The inhibition at 10 µM (BRD4(2) (h) bromodomain; 10 μM) was 13%, the inhibition at 10 µM (HDAC9 (h)) was -9% and the “% Control Response, agonist (increase in 2-DG uptake relative to insulin response)” value [3] was −52%. The inhibition at 10 µM (TIP60(h)) was -3%.
In the case of `CC(C)=CCC[C@H](C)[C@@H]1CC[C@@H](C)c2c1cc(C)c(O)c2O` [Compound 4, 7,8-dihydroxyserrulat-14-ene], the “% Control Response, agonist (increase in 2-DG uptake relative to insulin response)” value [3] is reported as −45%.
